Measurements published in ChEMBL document CHEMBL1201862, “PubChem BioAssay data set” (2004).
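Five compound concentrations were applied to cells in 96-well plates for 48 hours; endpoints were derived by simple linear interpolation of the resulting dose-response curve. Here, GI50 denotes the concentration required for 50% inhibition of growth.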 The source made the active and inactive calls. Cut-off read from the data, not from the text of the source: active = GI50 up to about 1.1 µM and inactive = higher.

How the values were obtained:
Experiment in all cases: growth of human tumour cells (NCI), 48 h
[1] = tested on: SNB-78
[2] = tested on: KM-20L2
[3] = tested on: DMS-273
[4] = tested on: A549
[5] = tested on: ACHN
[6] = tested on: HCT-116
[7] = tested on: XF498
[8] = tested on: SF-295
[9] = tested on: HCC 2998
[10] = tested on: K562
[11] = tested on: CAKI-1
[12] = tested on: MOLT-4
[13] = tested on: 786-0
[14] = tested on: OVCAR-8
[15] = tested on: M19-MEL
[16] = tested on: DLD-1
[17] = tested on: DMS-114
[18] = tested on: SK-OV-3
[19] = tested on: TK-10
[20] = tested on: HOP-92
[21] = tested on: NCI-H23
[22] = tested on: NCI-H460
[23] = tested on: OVCAR-4
[24] = tested on: UO-31
[25] = tested on: M14
[26] = tested on: RPMI-8226
[27] = tested on: KM12
[28] = tested on: UACC-62
[29] = tested on: SK-MEL-2
[30] = tested on: OVCAR-3
[31] = tested on: SN12C
[32] = tested on: SF-539
[33] = tested on: HOP-62
[34] = tested on: SF-268
[35] = tested on: UACC-257
[36] = tested on: LXFL 529
[37] = tested on: HCT-15
[38] = tested on: LOX IMVI
[39] = tested on: EKVX
[40] = tested on: SK-MEL-28
[41] = tested on: SR
[42] = tested on: SNB-75
[43] = tested on: SW-620
[44] = tested on: SNB-19
[45] = tested on: SK-MEL-5
[46] = tested on: A498
[47] = tested on: COLO 205
[48] = tested on: IGROV-1
[49] = tested on: CCRF-CEM
[50] = tested on: HL-60
[51] = tested on: U-251
[52] = tested on: RXF 393

SMILES: COC(=O)/C=C1/CCC(C(=O)OC)N1 (configuration not stated)
- GI50 [1]: > 100 µM (inactive)
- GI50 [2]: > 100 µM (inactive)
- GI50 [3]: > 100 µM (inactive)
- GI50 [4]: > 100 µM (inactive)
- GI50 [5]: > 100 µM (inactive)
- GI50 [6]: > 100 µM (inactive)
- GI50 [7]: > 100 µM (inactive)
- GI50 [8]: > 100 µM (inactive)
- GI50 [9]: > 100 µM (inactive)
- GI50 [10]: > 100 µM (inactive)
- GI50 [11]: > 100 µM (inactive)
- GI50 [12]: > 100 µM (inactive)
- GI50 [13]: > 100 µM (inactive)
- GI50 [14]: > 100 µM (inactive)
- GI50 [15]: > 100 µM (inactive)
- GI50 [16]: > 100 µM (inactive)
- GI50 [17]: > 100 µM (inactive)
- GI50 [18]: > 100 µM (inactive)
- GI50 [19]: > 100 µM (inactive)
- GI50 [20]: > 100 µM (inactive)
- GI50 [21]: > 100 µM (inactive)
- GI50 [22]: > 100 µM (inactive)
- GI50 [23]: > 100 µM (inactive)
- GI50 [24]: > 100 µM (inactive)
- GI50 [25]: > 100 µM (inactive)
- GI50 [26]: > 100 µM (inactive)
- GI50 [27]: > 100 µM (inactive)
- GI50 [28]: > 100 µM (inactive)
- GI50 [29]: > 100 µM (inactive)
- GI50 [30]: > 100 µM (inactive)
- GI50 [31]: > 100 µM (inactive)
- GI50 [32]: > 100 µM (inactive)
- GI50 [33]: > 100 µM (inactive)
- GI50 [34]: > 100 µM (inactive)
- GI50 [35]: > 100 µM (inactive)
- GI50 [36]: > 100 µM (inactive)
- GI50 [37]: > 100 µM
- GI50 [38]: > 100 µM (inactive)
- GI50 [39]: > 100 µM (inactive)
- GI50 [40]: > 100 µM (inactive)
- GI50 [41]: > 100 µM (inactive)
- GI50 [42]: > 100 µM (inactive)
- GI50 [43]: > 100 µM (inactive)
- GI50 [44]: > 100 µM (inactive)
- GI50 [45]: > 100 µM (inactive)
- GI50 [46]: > 100 µM (inactive)
- GI50 [47]: > 100 µM (inactive)
- GI50 [48]: > 100 µM (inactive)
- GI50 [49]: > 100 µM (inactive)
- GI50 [50]: > 100 µM (inactive)
- GI50 [51]: > 100 µM (inactive)
- GI50 [52]: > 100 µM (inactive)
